PubChem BioAssay (NCI)
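Step 1: Grow cells in 96-well plates. Step 2: Expose to compound for 48 hours at 5 concentrations. Step 3: Interpolate endpoints linearly; if unreached, use highest concentration. GI50 is the concentration that inhibits growth by half. TGI marks complete inhibition of growth.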

What was measured:
Test in all cases: growth of human tumour cells (NCI), 48 h
786-0 renal = test system: 786-0 renal
A498 renal = test system: A498 renal
A549 NSCLC = test system: A549 NSCLC
ACHN renal = test system: ACHN renal
BT-549 breast = test system: BT-549 breast
CAKI-1 renal = test system: CAKI-1 renal
CCRF-CEM leukemia = test system: CCRF-CEM leukemia
COLO 205 colon = test system: COLO 205 colon
DU-145 prostate = test system: DU-145 prostate
EKVX NSCLC = test system: EKVX NSCLC
HCC-2998 colon = test system: HCC-2998 colon
HCT-116 colon = test system: HCT-116 colon
HCT-15 colon = test system: HCT-15 colon
HL-60(TB) leukemia = test system: HL-60(TB) leukemia
HOP-62 NSCLC = test system: HOP-62 NSCLC
HOP-92 NSCLC = test system: HOP-92 NSCLC
HS 578T breast = test system: HS 578T breast
HT29 colon = test system: HT29 colon
IGROV1 ovarian = test system: IGROV1 ovarian
K-562 leukemia = test system: K-562 leukemia
KM12 colon = test system: KM12 colon
LOX IMVI melanoma = test system: LOX IMVI melanoma
M14 melanoma = test system: M14 melanoma
MALME-3M melanoma = test system: MALME-3M melanoma
MCF7 breast = test system: MCF7 breast
MDA-MB-231 breast = test system: MDA-MB-231 breast
MDA-MB-435 = test system: MDA-MB-435
MOLT-4 leukemia = test system: MOLT-4 leukemia
NCI-H226 lung = test system: NCI-H226 lung
NCI-H23 lung = test system: NCI-H23 lung
NCI-H460 lung = test system: NCI-H460 lung
NCI-H522 lung = test system: NCI-H522 lung
NCI/ADR-RES ovarian = test system: NCI/ADR-RES ovarian
OVCAR-3 ovarian = test system: OVCAR-3 ovarian
OVCAR-4 ovarian = test system: OVCAR-4 ovarian
OVCAR-5 ovarian = test system: OVCAR-5 ovarian
OVCAR-8 ovarian = test system: OVCAR-8 ovarian
PC-3 prostate = test system: PC-3 prostate
RPMI-8226 leukemia = test system: RPMI-8226 leukemia
RXF 393 renal = test system: RXF 393 renal
SF-268 CNS = test system: SF-268 CNS
SF-295 CNS = test system: SF-295 CNS
SF-539 CNS = test system: SF-539 CNS
SK-MEL-2 melanoma = test system: SK-MEL-2 melanoma
SK-MEL-28 melanoma = test system: SK-MEL-28 melanoma
SK-MEL-5 melanoma = test system: SK-MEL-5 melanoma
SK-OV-3 ovarian = test system: SK-OV-3 ovarian
SN12C renal = test system: SN12C renal
SNB-19 CNS = test system: SNB-19 CNS
SNB-75 CNS = test system: SNB-75 CNS
SR leukemia = test system: SR leukemia
SW-620 colon = test system: SW-620 colon
T-47D breast = test system: T-47D breast
TK-10 renal = test system: TK-10 renal
U251 CNS = test system: U251 CNS
UACC-257 melanoma = test system: UACC-257 melanoma
UACC-62 melanoma = test system: UACC-62 melanoma
UO-31 renal = test system: UO-31 renal

SMILES: CCN(CC)c1ccc(/C=N\NC(=O)c2cccc(Nc3ccnc(C(F)(F)F)c3)c2)c(O)c1
- GI50 (786-0 renal): 270 nM
- TGI (786-0 renal): 885 nM
- GI50 (A498 renal): 541 nM
- TGI (A498 renal): 17000 nM
- GI50 (A549 NSCLC): 587 nM
- TGI (A549 NSCLC): > 100000 nM
- GI50 (ACHN renal): 218 nM
- TGI (ACHN renal): > 40400 nM
- GI50 (BT-549 breast): 427 nM
- TGI (BT-549 breast): > 65100 nM
- GI50 (CAKI-1 renal): 182 nM
- TGI (CAKI-1 renal): 496 nM
- GI50 (CCRF-CEM leukemia): 84 nM
- TGI (CCRF-CEM leukemia): 1270 nM
- GI50 (COLO 205 colon): 327 nM
- TGI (COLO 205 colon): 2580 nM
- GI50 (DU-145 prostate): 159 nM
- TGI (DU-145 prostate): > 100000 nM
- GI50 (EKVX NSCLC): 219 nM
- TGI (EKVX NSCLC): 3800 nM
- GI50 (HCC-2998 colon): 278 nM
- TGI (HCC-2998 colon): 8760 nM
- GI50 (HCT-116 colon): 121 nM
- TGI (HCT-116 colon): 31000 nM
- GI50 (HCT-15 colon): 123 nM
- TGI (HCT-15 colon): > 100000 nM
- GI50 (HL-60(TB) leukemia): 299 nM
- TGI (HL-60(TB) leukemia): 1050 nM
- GI50 (HOP-62 NSCLC): 184 nM
- TGI (HOP-62 NSCLC): 1960 nM
- GI50 (HOP-92 NSCLC): 1350 nM
- TGI (HOP-92 NSCLC): > 100000 nM
- GI50 (HS 578T breast): 374 nM
- TGI (HS 578T breast): 11600 nM
- GI50 (HT29 colon): 301 nM
- TGI (HT29 colon): 7260 nM
- GI50 (IGROV1 ovarian): 143 nM
- GI50 (K-562 leukemia): 374 nM
- TGI (K-562 leukemia): > 100000 nM
- GI50 (KM12 colon): 342 nM
- TGI (KM12 colon): > 100000 nM
- GI50 (LOX IMVI melanoma): 133 nM
- TGI (LOX IMVI melanoma): 2220 nM
- GI50 (M14 melanoma): 217 nM
- TGI (M14 melanoma): 1430 nM
- GI50 (MALME-3M melanoma): 348 nM
- TGI (MALME-3M melanoma): 4320 nM
- GI50 (MCF7 breast): 296 nM
- TGI (MCF7 breast): > 100000 nM
- GI50 (MDA-MB-231 breast): 345 nM
- TGI (MDA-MB-231 breast): > 43100 nM
- GI50 (MDA-MB-435): 412 nM
- TGI (MDA-MB-435): > 24100 nM
- GI50 (MOLT-4 leukemia): 126 nM
- TGI (MOLT-4 leukemia): 1490 nM
- GI50 (NCI-H226 lung): 311 nM
- TGI (NCI-H226 lung): 3480 nM
- GI50 (NCI-H23 lung): 575 nM
- TGI (NCI-H23 lung): > 100000 nM
- GI50 (NCI-H460 lung): 199 nM
- TGI (NCI-H460 lung): 2240 nM
- GI50 (NCI-H522 lung): 393 nM
- TGI (NCI-H522 lung): 15700 nM
- GI50 (NCI/ADR-RES ovarian): 765 nM
- TGI (NCI/ADR-RES ovarian): > 28100 nM
- GI50 (OVCAR-3 ovarian): 271 nM
- TGI (OVCAR-3 ovarian): > 100000 nM
- GI50 (OVCAR-4 ovarian): 118 nM
- TGI (OVCAR-4 ovarian): > 100000 nM
- GI50 (OVCAR-5 ovarian): 408 nM
- TGI (OVCAR-5 ovarian): > 39300 nM
- GI50 (OVCAR-8 ovarian): 342 nM
- TGI (OVCAR-8 ovarian): > 100000 nM
- GI50 (PC-3 prostate): 646 nM
- TGI (PC-3 prostate): > 100000 nM
- GI50 (RPMI-8226 leukemia): 152 nM
- TGI (RPMI-8226 leukemia): 2200 nM
- GI50 (RXF 393 renal): 216 nM
- TGI (RXF 393 renal): 1900 nM
- GI50 (SF-268 CNS): 83 nM
- TGI (SF-268 CNS): > 27300 nM
- GI50 (SF-295 CNS): 312 nM
- TGI (SF-295 CNS): 2470 nM
- GI50 (SF-539 CNS): 279 nM
- TGI (SF-539 CNS): 1450 nM
- GI50 (SK-MEL-2 melanoma): 893 nM
- TGI (SK-MEL-2 melanoma): > 41200 nM
- GI50 (SK-MEL-28 melanoma): 191 nM
- TGI (SK-MEL-28 melanoma): > 20800 nM
- GI50 (SK-MEL-5 melanoma): 242 nM
- TGI (SK-MEL-5 melanoma): 883 nM
- GI50 (SK-OV-3 ovarian): 499 nM
- TGI (SK-OV-3 ovarian): > 100000 nM
- GI50 (SN12C renal): 278 nM
- TGI (SN12C renal): > 36500 nM
- GI50 (SNB-19 CNS): 418 nM
- TGI (SNB-19 CNS): > 100000 nM
- GI50 (SNB-75 CNS): 253 nM
- TGI (SNB-75 CNS): 7440 nM
- GI50 (SR leukemia): 96.7 nM
- TGI (SR leukemia): 736 nM
- GI50 (SW-620 colon): 366 nM
- TGI (SW-620 colon): > 100000 nM
- GI50 (T-47D breast): 485 nM
- TGI (T-47D breast): > 100000 nM
- GI50 (TK-10 renal): 371 nM
- TGI (TK-10 renal): > 100000 nM
- GI50 (U251 CNS): 183 nM
- TGI (U251 CNS): > 37500 nM
- GI50 (UACC-257 melanoma): 373 nM
- GI50 (UACC-62 melanoma): 250 nM
- TGI (UACC-62 melanoma): 1680 nM
- GI50 (UO-31 renal): 202 nM
- TGI (UO-31 renal): 2690 nM
